SMILES strings stand for the structures.

T1 sequence (P41597 whole entry): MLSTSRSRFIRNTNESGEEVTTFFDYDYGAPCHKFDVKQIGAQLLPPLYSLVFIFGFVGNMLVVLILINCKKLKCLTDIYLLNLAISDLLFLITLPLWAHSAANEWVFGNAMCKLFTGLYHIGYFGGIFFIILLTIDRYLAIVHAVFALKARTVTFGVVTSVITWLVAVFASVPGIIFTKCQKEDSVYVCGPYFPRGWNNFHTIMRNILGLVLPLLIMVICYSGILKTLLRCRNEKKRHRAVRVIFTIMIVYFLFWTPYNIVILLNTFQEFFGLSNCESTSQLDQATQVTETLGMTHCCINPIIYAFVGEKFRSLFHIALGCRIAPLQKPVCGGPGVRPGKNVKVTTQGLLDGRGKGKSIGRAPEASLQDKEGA

This test concerns the target T1, CCR2 (Homo sapiens, UniProt P41597).
T1 construct: Membranes were prepared from THP-1 cells; endogenous in cells; host or cells: THP-1 (human acute monocytic leukaemia cells), membrane preparation
Description: CCR2 receptor membrane binding assay ([125I]MCP-1, THP-1 cell membranes, SPA beads). Particulars: THP-1 membranes, [125I]MCP-1, bound radioactivity determined after 8 h; read-out: hKi. The method, then:
The above exemplary substances have been tested for binding to CCR2 using a binding assay as outlined herein below:
THP-1 cells (human acute monocytic leukaemia cells) were cultured under standardized conditions at 37° C. and 5% CO2 in a humidified incubator. THP-1 cells were cultivated in RPMI 1640 medium (Gibco 21875) containing 1% MEM-NEAA (Gibso 11140) 2 mM L-glutamine, 1.5 g/L sodium bicarbonate, 4.5 g/L glucose, 10 mM HEPES and 1.0 mM sodium pyruvate, 90%; 10% fetal calf serum (FCS Gibco 10500-064).
Membranes were prepared from THP-1 cells. THP-1 cells were centrifuged at 300×g at 4° C. for 10 min. The cell pellet was resuspended in Phosphate Buffer Saline (PBS, including 10 μM Pefabloc and a protease inhibitor mix ‘complete’, Boehringer Mannheim (1 tablet/50 ml)), to a concentration of […]. The membrane preparation was performed by disrupting the cells by nitrogen […] (at 50 bar, for 1 h) in a “Nitrogen Bombe” (Parr Instrument). Cell debris was removed by centrifugation (800×g at 4° C., 1 min). The supernatant was centrifuged at 80000×g, 4° C. for 30 min to sediment the cell membranes. Usually 50 mg of protein (Bradford assay) were yielded from 1×10E9 cells. The membranes were resuspended in 25 mM HEPES, 25 mM MgCl2, 1 mM CaCl2, 10% Glycerine for storage in aliquots at −80° C. in 25 mM HEPES, 25 mM MgCl2, 1 mM CaCl2, 10% Glycerine and stored at −80° C.
Receptor Membrane Binding Assay:
Perkin Elmer NEX 332 Jod 125 MCP-1, Stock: 2200 Ci/mmol solved in […] assay buffer, stored at −20° C. THP-1 membrane were adjusted with 25 mM HEPES, pH 7.2; 5 mM MgCl2; 0.5 mM CaCl2; 0.2% BSA assay buffer to a concentration of 2.5 μg/15 μl. Amersham Biosciences PVT-WGA Beads (RPNQ0001) were adjusted with assay buffer to a concentration of 0.24 mg/30 μl. For preparation of the membrane-bead-suspension membranes and beads were incubated for 30 min at RT under rotation (60 rpm) with a ratio of 1:2. Test compounds dissolved in 100% DMSO to a concentration of 10 mM and are further diluted with 100% DMSO to 1 mM. All additional compound dilutions were obtained with assay buffer, final 1% DMSO. Compounds, membrane-bead-suspension and [^125I]MCP-1 (ca. 25000 cpm/10 μl) were incubated. Bound radioactivity was determined by scintillation counter after 8 h. Determination of affinity of test compounds (dissociation constant hKi) is calculated by iterative fitting of experimental data using the “easy sys” program, which is based on law of mass action (Schittkowski K. (1994), Numerische Mathematik, Vol. 68, 129-142).
In the case of `Cc1c(C(=O)N2CCC(N3CCC(N(C)S(C)(=O)=O)CC3)CC2)ncnc1N1CCc2ccc(C(F)(F)F)cc2C1` [Example 1], the Ki amounted to 15 nM.
Regarding `COC1COCCC1NC1CCN(C(=O)c2ncnc(N3CCc4cccc(C(F)(F)F)c4C3)c2C)CC1` (centres unmarked) [Example 2], the Ki worked out at 507 nM.
Regarding `Cc1c(C(=O)N2CCC(N3CCC(N(C)S(C)(=O)=O)CC3)CC2)ncnc1N1CCOC(c2ccc(Cl)cc2)C1` (centres unmarked) [Example 3], the Ki came out at 3690 nM.
As for `COC1COCCC1NC1CCN(C(=O)c2ncnc(N3CCOC(c4ccc(Cl)cc4)C3)c2C)CC1` (centres unmarked) [Example 4], the Ki turned out to be 1090 nM.
For the compound `COC1COCCC1NC1CCN(C(=O)c2ncnc(N3CCOC(c4ccccc4)C3)c2C)CC1` (centres unmarked) [Example 5], the Ki was 4170 nM.
As for `Cc1c(C(=O)N2CCC(N3CCC(N(C)S(C)(=O)=O)CC3)CC2)ncnc1N1CCC2(CCc3ccccc32)CC1` [Example 6], the Ki stood at 1640 nM.
As for `COC1COCCC1NC1CCN(C(=O)c2ncnc(N3CCc4ccc(F)cc4C3)c2C)CC1` (centres unmarked) [Example 7], the Ki is 27 nM.
Consider `COC1COCCC1NC1CCN(C(=O)c2ncnc(N3CCc4ccc(OC(F)(F)F)cc4C3)c2C)CC1` (centres unmarked) [Example 8], for which the Ki was 11 nM.
For `COC1COCCC1NC1CCN(C(=O)c2ncnc(N3CCCC(c4cccc(C(F)(F)F)c4)C3)c2C)CC1` (centres unmarked) [Example 9], the Ki was 2150 nM.
The figure for `COC1COCCC1NC1CCN(C(=O)c2ncnc(N3CCc4ccc(Cl)cc4C3)c2C)CC1` (centres unmarked) [Example 10] is 14 nM; for `Cc1c(C(=O)N2CCC(N3CCC(N(C)S(C)(=O)=O)CC3)CC2)ncnc1N1CCC2(C=Cc3ccccc32)CC1` [Example 11] it is 2160 nM; for `COC1COCCC1NC1CCN(C(=O)c2ncnc(N3CCCC(c4cccc(F)c4)C3)c2C)CC1` (centres unmarked) [Example 12] it is 1100 nM.
Turning to `COC1COCCC1NC1CCN(C(=O)c2ncnc(N3CCC(c4ccc(C)cc4)CC3)c2C)CC1` (centres unmarked) [Example 13], the Ki stood at 739 nM.
The figure for `COc1ccc(C2CCN(c3ncnc(C(=O)N4CCC(NC5CCOCC5OC)CC4)c3C)CC2)cc1` (centres unmarked) [Example 14] is 1610 nM; for `COC1COCCC1NC1CCN(C(=O)c2ncnc(N3CCC(c4cccc(C)c4)CC3)c2C)CC1` (centres unmarked) [Example 15] it is 732 nM; for `COC1COCCC1NC1CCN(C(=O)c2ncnc(N3CCC(c4ccccc4)CC3)c2C)CC1` (centres unmarked) [Example 16] it is 1510 nM.
Regarding `Cc1c(C(=O)N2CCC(N3CCC(N(C)S(C)(=O)=O)CC3)CC2)ncnc1N1CCC(c2ccc(C(F)(F)F)cc2)CC1` [Example 17], the Ki was 1050 nM.
Take `COC1COCCC1NC1CCN(C(=O)c2ncnc(N3CCC(c4ccc(Cl)cc4)CC3)c2C)CC1` (centres unmarked) [Example 18]: the Ki came out at 331 nM.
For `COC1COCCC1NC1CCN(C(=O)c2ncnc(N3CCC4(CC3)OCc3ccccc34)c2C)CC1` (centres unmarked) [Example 19], the Ki stood at 3620 nM.
As for `Cc1c(C(=O)N2CCC(N3CCC(N(C)S(C)(=O)=O)CC3)CC2)ncnc1N1CCC(c2cccc(C(F)(F)F)c2)CC1` [Example 20], the Ki was 480 nM.
As to `COc1ccc(C2CCN(c3ncnc(C(=O)N4CCC(N5CCC(N(C)S(C)(=O)=O)CC5)CC4)c3C)CC2)cc1` [Example 21], the Ki was found to be 4410 nM.
For `Cc1c(C(=O)N2CCC(N3CCC(N(C)S(C)(=O)=O)CC3)CC2)ncnc1N1CCC(c2cccc(F)c2)CC1` [Example 22], the Ki was determined as 3790 nM.
Turning to `COC1COCCC1NC1CCN(C(=O)c2ncnc(N3CCC4(C=Cc5ccccc54)CC3)c2C)CC1` (centres unmarked) [Example 23], the Ki was determined as 455 nM.
Regarding `Cc1ccc(C2CCN(c3ncnc(C(=O)N4CCC(N5CCC(N(C)S(C)(=O)=O)CC5)CC4)c3C)CC2)cc1` [Example 24], the Ki came to 1300 nM.
On to `Cc1c(C(=O)N2CCC(N3CCC(N(C)S(C)(=O)=O)CC3)CC2)ncnc1N1CCC(c2ccccc2C(F)(F)F)CC1` [Example 25], for which the Ki was 657 nM.
Turning to `Cc1c(C(=O)N2CCC(N3CCC(N(C)S(C)(=O)=O)CC3)CC2)ncnc1N1CCC(c2ccc(Cl)cc2)CC1` [Example 26], the Ki was 1970 nM.
Take `Cc1c(C(=O)N2CCC(N3CCC(N(C)S(C)(=O)=O)CC3)CC2)ncnc1N1CCC(c2cccc(Cl)c2)CC1` [Example 27]: the Ki is 661 nM.
Turning to `Cc1c(C(=O)N2CCC(N3CCC(N(C)S(C)(=O)=O)CC3)CC2)ncnc1N1CCC(c2ccccc2)CC1` [Example 28], the Ki came to 3680 nM.
Take `COC1COCCC1NC1CCN(C(=O)c2ncnc(N3CCC(c4ccccc4C(F)(F)F)CC3)c2C)CC1` (centres unmarked) [Example 29]: the Ki came to 241 nM.
For `Cc1cccc(C2CCN(c3ncnc(C(=O)N4CCC(N5CCC(N(C)S(C)(=O)=O)CC5)CC4)c3C)CC2)c1` [Example 30], the Ki amounted to 1360 nM.
As to `COC1COCCC1NC1CCN(C(=O)c2ncnc(N3CCCC(c4cccc(Cl)c4)C3)c2C)CC1` (centres unmarked) [Example 31], the Ki was determined as 1710 nM.
For the compound `COC1COCCC1NC1CCN(C(=O)c2ncnc(N3CCCC(c4ccc(F)cc4)C3)c2C)CC1` (centres unmarked) [Example 32], the Ki is 3600 nM.
The figure for `COC1COCCC1NC1CCN(C(=O)c2ncnc(N3CCCC(c4ccc(C)cc4)C3)c2C)CC1` (centres unmarked) [Example 33] is 2110 nM; for `Cc1c(C(=O)N2CCC(N3CCC(N(C)S(C)(=O)=O)CC3)CC2)ncnc1N1CCCC(c2ccc(C(F)(F)F)cc2)C1` (centres unmarked) [Example 34] it is 4250 nM; for `Cc1c(C(=O)N2CCC(N3CCC(N(C)S(C)(=O)=O)CC3)CC2)ncnc1N1CCCCC1c1cccc(Cl)c1` (centres unmarked) [Example 35] it is 2860 nM.
For `COC1COCCC1NC1CCN(C(=O)c2ncnc(N3CCCC(c4ccc(C(F)(F)F)cc4)C3)c2C)CC1` (centres unmarked) [Example 36], the Ki was found to be 1270 nM.
Regarding `Cc1c(C(=O)N2CCC(N3CCC(NS(C)(=O)=O)CC3)CC2)ncnc1N1CCc2ccc(C(F)(F)F)cc2C1` [Example 37], the Ki stood at 18 nM.
With `COC1COCCC1NC1CCN(C(=O)c2ncnc(N3CCc4c(Cl)cccc4C3)c2C)CC1` (centres unmarked) [Example 38], the Ki is 168 nM.
For the compound `COC1COCCC1NC1CCN(C(=O)c2ncnc(N3CCc4c(Cl)cc(Cl)cc4C3)c2C)CC1` (centres unmarked) [Example 39], the Ki is 49 nM.
Consider `COC1COCCC1NC1CCN(C(=O)c2ncnc(N3CCc4ncc(Br)cc4C3)c2C)CC1` (centres unmarked) [Example 40], for which the Ki came to 304 nM.
As for `COC1COCCC1NC1CCN(C(=O)c2ncnc(N3CCC(c4ccc(C(F)(F)F)cc4)CC3)c2C)CC1` (centres unmarked) [Example 41], the Ki was determined as 432 nM.
Take `COC1COCCC1NC1CCN(C(=O)c2ncnc(N3CCC(c4cccc(C(F)(F)F)c4)CC3)c2C)CC1` (centres unmarked) [Example 42]: the Ki amounted to 230 nM.
The figure for `COC1COCCC1NC1CCN(C(=O)c2ncnc(N3Cc4ccc(C(F)(F)F)cc4C3)c2C)CC1` (centres unmarked) [Example 43] is 49 nM.
Regarding `Cc1c(C(=O)N2CCC(N3CCC(N(C)S(C)(=O)=O)CC3)CC2)ncnc1N1CCC(c2ccccc2F)C1` (centres unmarked) [Example 44], the Ki was 3920 nM.
With `Cc1c(C(=O)N2CCC(N3CCC(N(C)S(C)(=O)=O)CC3)CC2)ncnc1N1CCC(c2ccc(C(F)(F)F)cc2)C1` (centres unmarked) [Example 45], the Ki came to 1170 nM.
Consider `Cc1c(C(=O)N2CCC(N3CCC(N(C)S(C)(=O)=O)CC3)CC2)ncnc1N1CCC(c2cccc(C(F)(F)F)c2)C1` (centres unmarked) [Example 46], for which the Ki was found to be 1170 nM.
The figure for `Cc1c(C(=O)N2CCC(N3CCC(N(C)S(C)(=O)=O)CC3)CC2)ncnc1N1CCC(c2ccc(Cl)cc2)C1` (centres unmarked) [Example 47] is 1100 nM.
The figure for `COC1COCCC1NC1CCN(C(=O)c2ncnc(N3CCC(c4ccc(C(F)(F)F)cc4)C3)c2C)CC1` (centres unmarked) [Example 48] is 159 nM; for `COC1COCCC1NC1CCN(C(=O)c2ncnc(N3CCC(c4ccccc4C(F)(F)F)C3)c2C)CC1` (centres unmarked) [Example 49] it is 161 nM.
Turning to `COC1COCCC1NC1CCN(C(=O)c2ncnc(N3CCC(c4ccccc4)C3)c2C)CC1` (centres unmarked) [Example 50], the Ki turned out to be 451 nM.
For the compound `COC1COCCC1NC1CCN(C(=O)c2ncnc(N3CCC(c4ccccc4F)C3)c2C)CC1` (centres unmarked) [Example 51], the Ki amounted to 405 nM.
In the case of `COC1COCCC1NC1CCN(C(=O)c2ncnc(N3CCC(c4cccc(C(F)(F)F)c4)C3)c2C)CC1` (centres unmarked) [Example 52], the Ki turned out to be 270 nM.
For the compound `COC1COCCC1NC1CCN(C(=O)c2ncnc(N3CCC(c4ccc(Cl)cc4)C3)c2C)CC1` (centres unmarked) [Example 53], the Ki is 172 nM.

Source of the values: patent US8877745B2, “CCR2 receptor antagonists, method for producing the same, and use thereof as medicaments” (Boehringer Ingelheim International GmbH, priority 2010, dated 2014).
